We go through one compound from patent US20240108623A1, “METHODS OF TREATING CANCER WITH POZIOTINIB” (BOARD OF REGENTS, THE UNIVERSITY OF TEXAS SYSTEM, priority 2021, published 2024).

Common to all, as to assay: Ba/F3 cell drug screening, Cell Titer Glo
Common to all, as to type: cell-based
(Cellular ATP, detected with luciferase, serves as a proxy for viable cell number.)

One assay concerns the target T1, EGFR R776H (Homo sapiens, UniProt P00533, R776H).
T1 construct: host or cells: Ba/F3 (retroviral transduction, pBabe-Puro based vectors)
To be noted: Ba/F3 cells expressing EGFR R776H; 72 hours. The method in brief: (§1)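 Mutant EGFR-driven Ba/F3 cells, maintained in 1 ng/ml EGF, are treated 72 h with a seven-concentration TKI series. Viability is read by CellTiter-Glo, and IC50 derived by variable-slope regression.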

The target of another assay is T2, EGFR Ex19del/T790M/L792H (Homo sapiens, UniProt P00533, DEL746-750/L792H/T790M).
T2 construct: expressed in transfected cells; host or cells: Ba/F3 (retroviral transduction, pBabe-Puro based vectors)
Particulars: Ba/F3 cells expressing EGFR Ex19del/T790M/L792H; 72 hours. Put shortly:
as §1

A further assay concerns the target T3, EGFR Ex19del G796S (Homo sapiens, UniProt P00533, DEL746-750/G796S).
T3 construct: expressed in transfected cells; host or cells: Ba/F3 (retroviral transduction, pBabe-Puro based vectors)
Particulars: Ba/F3 cells expressing EGFR Ex19del G796S; 72 hours. Put shortly:
as §1

The next assay has as its target T4, EGFR S768I (Homo sapiens, UniProt P00533, S768I).
T4 construct: expressed in transfected cells; host or cells: Ba/F3 (retroviral transduction, pBabe-Puro based vectors)
To be noted: Ba/F3 cells expressing EGFR S768I; 72 hours. Put shortly:
as §1

In a further assay the target is T5, EGFR S811F (Homo sapiens, UniProt P00533, S811F).
T5 construct: expressed in transfected cells; host or cells: Ba/F3 (retroviral, pBabe-Puro based vector; created by GeneScript from EGFR WT)
Particulars: Ba/F3 cells expressing EGFR S811F; 72 hours. Put shortly:
as §1

The next assay has as its target T6, EGFR R776C (Homo sapiens, UniProt P00533, R776C).
T6 construct: host or cells: Ba/F3 (retroviral transduction, pBabe-Puro based vectors)
To be noted: Ba/F3 cells expressing EGFR R776C; 72 hours. Put shortly: as §1

Another assay relates to EGFR I740dupIPVAK. To be noted: Ba/F3 cells expressing EGFR I740dupIPVAK; 72 hours. The method in brief:
as §1

The target of the next assay is T7, EGFR A767insASV (Homo sapiens, UniProt P00533, DUP767-769).
T7 construct: expressed in transfected cells; host or cells: Ba/F3 (retroviral, pBabe-Puro based vector)
To be noted: Ba/F3 cells expressing EGFR A767insASV; 72 hours. Put shortly:
as §1

The next assay addresses T8, EGFR Ex19del T790M (Homo sapiens, UniProt P00533, DEL746-750/T790M).
T8 construct: expressed in transfected cells; host or cells: Ba/F3 (retroviral transduction, pBabe-Puro based vectors)
To be noted: Ba/F3 cells expressing EGFR Ex19del T790M; 72 hours. Put shortly: as §1

Another assay concerns the target T9, EGFR D761N (Homo sapiens, UniProt P00533, D761N).
T9 construct: expressed in transfected cells; host or cells: Ba/F3 (retroviral, pBabe-Puro based vector)
To be noted: Ba/F3 cells expressing EGFR D761N; 72 hours. The method in brief:
as §1

The target of a further assay is T10, EGFR T725M (Homo sapiens, UniProt P00533, T725M).
T10 construct: expressed in transfected cells; host or cells: Ba/F3 (retroviral, pBabe-Puro based vector; created by GeneScript from EGFR WT)
To be noted: Ba/F3 cells expressing EGFR T725M; 72 hours. The method in brief:
as §1

In another assay the target is T11, EGFR G719A/R776C (Homo sapiens, UniProt P00533, G719A/R776C).
T11 construct: expressed in transfected cells; host or cells: Ba/F3 (retroviral transduction, pBabe-Puro based vectors)
Particulars: Ba/F3 cells expressing EGFR G719A/R776C; 72 hours. The method in brief: as §1

In the next assay the target is T12, EGFR G719S T790M (Homo sapiens, UniProt P00533, G719S/T790M).
T12 construct: expressed in transfected cells; host or cells: Ba/F3 (retroviral transduction, pBabe-Puro based vectors)
Particulars: Ba/F3 cells expressing EGFR G719S T790M; 72 hours. The method in brief: as §1

In a further assay the target is T13, EGFR L858R (Homo sapiens, UniProt P00533, L858R).
T13 construct: expressed in transfected cells; host or cells: Ba/F3 (retroviral, pBabe-Puro based vector)
To be noted: Ba/F3 cells expressing EGFR L858R; 72 hours. The method in brief:
as §1

A further assay concerns the target T14, EGFR V774M (Homo sapiens, UniProt P00533, V774M).
T14 construct: host or cells: Ba/F3 (retroviral transduction, pBabe-Puro based vectors)
Particulars: Ba/F3 cells expressing EGFR V774M; 72 hours. The method in brief: as §1

The next assay addresses T15, EGFR E709K L858R (Homo sapiens, UniProt P00533, E709K/L858R).
T15 construct: expressed in transfected cells; host or cells: Ba/F3 (retroviral, pBabe-Puro based vector)
Particulars: Ba/F3 cells expressing EGFR E709K L858R; 72 hours. The method in brief: as §1

Another assay addresses T16, EGFR L858R/C797S (Homo sapiens, UniProt P00533, C797S/L858R).
T16 construct: expressed in transfected cells; host or cells: Ba/F3 (retroviral transduction, pBabe-Puro based vectors)
To be noted: Ba/F3 cells expressing EGFR L858R/C797S; 72 hours. Put shortly: as §1

As to `C=CC(=O)N1CCC(Oc2cc3c(Nc4ccc(Cl)c(Cl)c4F)ncnc3cc2OC)CC1` [Poziotinib], the “Response of Cells Comprising PACC EGFR Mutations to Second-Generation TKIs” value was 0.01644 at EGFR R776H; 0.2054 at EGFR Ex19del G796S; 4.858 on EGFR S768I; 0.03049 at EGFR R776C; 0.02483 in the assay on EGFR I740dupIPVAK; 0.01624 on EGFR G719A/R776C. The “Response of Cells Comprising PACC EGFR Mutations to Second-Generation TKIs” value at EGFR V774M turned out to be 0.01859; at EGFR L858R/C797S, 0.2299. The “Response of Cells Comprising T790M-like-R EGFR Mutations to Second-Generation TKIs” value at EGFR Ex19del/T790M/L792H is recorded as 2157. For the same compound, the “Response of Cells Comprising Classical-Like EGFR Mutations to Second-Generation TKIs” value at EGFR S811F was found to be 0.2983; on EGFR D761N it was 0.007859; at EGFR T725M, 0.003297; at EGFR L858R it was 0.02579; on EGFR E709K L858R, 0.005342. For the same compound, the “Response of Cells Comprising Ex20ins EGFR Mutations to Poziotinib” value at EGFR A767insASV was found to be 0.3183. The “Response of Cells Comprising T790M-like-S EGFR Mutations to Second-Generation TKIs” value on EGFR Ex19del T790M is 3.423; on EGFR G719S T790M, 0.3262.
